Reference: patent publication US20130123618A1, “Imaging Agents” (priority 2008, published 2013)

Experiments:
Assay type in all cases: cell-based
[1] = test system: MDA MB468 Human Breast carcinoma cells; assay: in vitro amino acid uptake in MDA MB468 cells
Text: (§1) Compounds have been evaluated in vitro for tumor binding specificity (i.e. uptake cells) using a variety of tumor cell lines available in the art, along with reference compounds such as Me-AlB and BCH. Detailed description of these assays can be found in Martarello et al. (2002) Journal of Medicinal Chemistry, 45:2250-2259 and McConathy et al. (2003) Nuclear Medicine and Biology, 30:477-490. These so called “amino acid uptake studies” are typically carried out with radiolabeled compounds in at least five phenotypically different human tumor cell lines (e.g., A549 lung carcinoma, MB468 breast carcinoma, DU145 prostate carcinoma-androgen independent, LnCap-androgen dependent, SKOV3 ovarian carcinoma, U87 glial blastoma, MIA PaCa-2 pancreas carcinoma, MDA MB231 breast carcinoma). These tumor cell lines can be grown either in vitro or in vivo with severe combined immunodeficiency (SCID) mice as a host. The afore-mentioned tumor cell lines are available at the Winship Cancer Institute of Emory University.
(§2) For the in vitro amino acid uptake studies, all cells can be grown to monolayer confluency in T-175 culture flasks [Corning, Corning, N.Y.] (approx. 1×10^8 cells/flask) in Dulbecco's Modified Eagle's Medium (DMEM) [Sigma, St. Louis, Mo.] in a humidified incubator (37° C., 5% CO2/95% air). […]
(§3) In the in vitro studies the uptake rate of each amino acid compound is measured in each tumor line, as well as the dominant transport mechanisms of each tumor cell line. After trypsinization, cells are resuspended in serum-free media, then counted on a hemocytometer, with viability assessed through Trypan blue staining. […] The vials are placed in a Cobra-II gamma counter (Packard, Meriden, Conn.), with the activity per cell number determined. […] Saline washes are performed as described above, and the filtered cells' radioactivity determined on the gamma counter. […]
(§4) The uptake of all compounds were measured in human and rat cancer cell lines and the dominant transport (“A” and “L”) mechanism of each culture were determined. […]

[2] = test system: DU145 Human Prostate carcinoma cells; assay: in vitro amino acid uptake in DU145 cells
Text: as §1, §2, §3, §4

[3] = test system: SKOV3 Human Ovarian carcinoma cells; assay: in vitro amino acid uptake in SKOV3 cells
Text: as §1, §2, §3, §4

[4] = test system: tumor cells; assay: overall conclusion of uptake studies in cancer cells in vitro
Procedure: In the in vitro studies the uptake rate of each amino acid compound is measured in each tumor line, as well as the dominant transport mechanisms of each tumor cell line. After trypsinization, cells are resuspended in serum-free media, then counted on a hemocytometer, with viability assessed through Trypan blue staining. Approximately 1×10^7 cells are exposed to each compound (15 μCi) in 15 ml of amino acid free media for 5, 10, 15, 30 and 60 minutes at 37° C. Cells are then centrifuged at 150×g for 5 minutes, rinsed in 5 ml cold-saline, recentrifuged, resuspended in 3 ml saline, and placed into 12×75 mm glass vials (Fisher, Pittsburgh, Pa.). The vials are placed in a Cobra-II gamma counter (Packard, Meriden, Conn.), with the activity per cell number determined. Inhibition studies determine the dominant transport mechanism (L, A or ASC) for each line [Martarello et al. (2002) supra; McConathy et al. (2003) supra]. For these studies, cells are exposed to the compounds for 30 minutes in amino acid free media containing one of three inhibitors (2-amino-norbornyl-2-carboxylic acid (BCH), 10 mM; α-(methylamino)-isobutyric acid (MeAlB), 10 mM; and an alanine-serine-cysteine mixture 1:1:1 (acs), 10 mM). Saline washes are performed as described above, and the filtered cells' radioactivity determined on the gamma counter. Comparisons with the 30 minute control uptake indicate the major transporters used. Results of these studies are found in FIGS. 1-18.
Approximately 10^6 cells were exposed to the [^18F]amino acid candidate (5 μCi) in 3 ml of amino acid-free media±transporter inhibitors (10 mM) for 30 minutes under incubation conditions by the method previously described (McConathy, J.; Martarello, L.; Malveaux, E.; Camp, V.; Bowers, G.; Olson, J.; Goodman, M. (2002) Radiolabeled amino acids for tumor imaging with PET: radiosynthesis and biological evaluation of [^18F]2-amino-3-fluoro-2-methylpropanoic acid and [^18F]3-fluoro-2-methyl-2-(methylamino)-propanoic acid. J. Med. Chem. 45, 2240-2249). The inhibition studies determined the dominant transport mechanism (L, A) for each candidate PET amino acid for each tumor model. 2-Methylaminoisobutyric acid (MeAlB) and 2-aminobicyclo-[2.2.1]-heptane-2-carboxylic acid (BCH) serve as inhibitors for the “A”, “L” transport systems, respectively.

[5] = test system: 9L Rat gliosarcoma cells; assay: in vitro amino acid uptake in 9L cells
Text: as §1, §2, §3, §4

[6] = test system: A549 Human Lung adenocarcinoma cells; assay: in vitro amino acid uptake in A549 cells
Text: as §1, §2, §3, §4

| SMILES | % Dose uptake per 0.5 × 10−6 Cells [1] | % Dose uptake per 0.5 × 10−6 Cells [2] | % Dose uptake per 0.5 × 10−6 Cells [3] | selective uptake in tumor cells [4] | % Dose uptake per 0.5 × 10−6 Cells [5] | % Dose uptake per 0.5 × 10−6 Cells [6] | in vitro uptake in cancer cells compared with enantiomer 2 ([4]; in vitro in cancer cells) |
| --- | --- | --- | --- | --- | --- | --- | --- |
| NC1(C(=O)O)CCC1[18F] (racemic) [racemic anti-2-[^18F]FACBC] | 7.4 % Dose/0.5 × 10^−6 | 6.4 % Dose/0.5 × 10^−6 | 2.2 % Dose/0.5 × 10^−6 | selectively taken up in tumor cells | 2.3 % Dose/0.5 × 10^−6 | 8.9 % Dose/0.5 × 10^−6 |  |
| N[C@]1(C(=O)O)CCC[C@@H]1[18F] (single isomer, unassigned; enantiomer 1) [Enantiomer 1, anti-2-[^18F]FACPC] | 15 % Dose/0.5 × 10^−6 | 8 % Dose/0.5 × 10^−6 | 7 % Dose/0.5 × 10^−6 | selectively taken up in tumor cells | 12 % Dose/0.5 × 10^−6 | 13 % Dose/0.5 × 10^−6 | greater uptake than enantiomer 2 |
